Experiments:
[1] = Brain tissue levels in mice; format: in vivo, mouse; settings: 100 mg/kg i.p.
Experimental: C57BL/6J female mice (n=4 per each time point) were treated with 100 mg/kg single dose of FORMULA I intraperitoneally. Blood samples were collected 0, 0.5, 1, 2, 4, 8, 12 and 24 h after administration of FORMULA I by cardiac puncture under isoflurane anesthesia. Plasma was obtained by centrifugation from heparinized tubes and stored at −80° C. until analysis. Brain tissues were quickly removed and stored at −80° C. for further processing. For assessment of the brain exposure of FORMULA I, levels in this tissue were only determined at 2nd (n=2) and 4th (n=2) hours according to maximum concentrations of the molecule in plasma.
Liquid chromatography coupled to tandem mass spectrometry (LC-MS/MS) was used to obtain high mass accuracy data of the analytes in plasma samples for the determination of FORMULA I and Internal standard (IS) Loratadine. […] The optimized conditions of the electrospray ionization (ESI) source were as follows: gas temperature, 300° C.; gas flow, 10 L/min; nebulizer pressure, 25 psi; capillary voltage, 5500 V. ESI in the positive ion mode provides the best results for FORMULA I. For MS-MS detection, the protonated molecules were selected as precursor ions and the most abundant fragment ions obtained at collision energy of 22-20 eV were monitored as the product ions for FORMULA I and IS. […]

[2] = Plasma pharmacokinetics in mice; format: in vivo; settings: female, C57BL/6J, mouse, ip, 100 mg/kg, single dose, i.p., read-out: AUC0-24

SMILES: Cc1c(C(=O)N2CCc3ccccc32)oc2ccc3c(c12)C(=O)CC(C)(c1ccc(Cl)cc1)O3 (stereo not drawn) [FORMULA I, 11-(4-chlorophenyl)-4-(2,3-dihydro-1H-indole-1-carbonyl)-3,11-dimethyl-5,10,dioxatricyclo[7.4.0.0,2,6,]trideca-1,3,6,8-tetraen-13-one]
- blood-brain barrier crossing [1]: crosses the blood-brain barrier
- detection in brain tissue ([1]; 2nd and 4th hours): detected in the brain tissue
- AUC(0-t) [2]: 4920 ± 3070 ng·h/mL

From patent publication US20230104487A1, “11-(4-CHLOROPHENYL)-4-(2,3-DIHYDRO-1H-INDOLE-1-CARBONYL)-3,11-DIMETHYL-5,10,DIOXATRICYCLO[7.4.0.0,2,6,]TRIDECA-1,3,6,8-TETRAEN-13-ONE AND DERIVATIVES AS DESTABILIZER OF CRY1 FOR THE TREATMENT OF CIRCADIAN RHYTHM ASSOCIATED DISEASES AND DISORDERS” (KOC UNIVERSITESI, priority 2019, published 2023)
